Data reported in patent US5244898A, “Benzoheterocyclic compounds” (Otsuka Pharmaceutical Co., Ltd., priority 1991, dated 1993).
Where a name gives a salt, the structure may show the parent alone.

Key:
[1] = molecular target: T1, V2 Receptor (Rattus norvegicus, UniProt Q00788); assay: V2 Receptor Binding Assay ([3H]-Arg-vasopressin, rat kidney plasma membrane); details: 4° C., pH 8.0
T1 construct: rat kidney plasma membrane preparations; from tissue; host or cells: rat kidney plasma membranes
Experimental: Chem., 253, 3211 (1978)], the plasma membrane (100000 dpm, 4×10^-10M) of [^3 H]-Arg-vasopressin and a test compound (0.6 mg, 10^-10 -10^-5 M) are incubated at 4° C. for 3 hours in 100 mM Tris-HCl buffer pH: 8.0 (250 μl ) containing 5 mM MgCl2, 1 mM EDTA and 0.1 % BSA. After incubation, the mixture is filtered using the glass filter (GF/F) so as to separate the membrane preparation combining with vasopressin and then washed twice with the buffer (5 ml). This glass filter is taken out and mixed with liquid scintillation cocktail. The amount of [^3 H]-vasopressin combining with the membrane is measured by liquid scintillation counter and the rate of the inhibitory effect of the test compound is estimated according to the following equation. [formula]
(§1) C1 : The amount of [^3 H]-vasopressin combining with the membrane in the presence of the test compound of a known amount.
(§2) C0 : The amount of [^3 H]-vasopressin combining with the membrane in the absence of the test compound.
B1 : The amount of [3H-vasopressin combining with the membrane in the presence of the excess amount of vasopressin (10^-6 M).
(§3) The results are expressed as IC50 value, which is the concentration of the test compound required to achieve the inhibitory effect in the rate of 50%.

[2] = molecular target: V1 Receptor (Rattus norvegicus, UniProt P30560); assay: V1 Receptor Binding Assay ([3H]-Arg-vasopressin, rat liver plasma membrane); details: 37° C., 10 minutes, pH 8.0
Sequence of V1 Receptor (P30560 whole entry): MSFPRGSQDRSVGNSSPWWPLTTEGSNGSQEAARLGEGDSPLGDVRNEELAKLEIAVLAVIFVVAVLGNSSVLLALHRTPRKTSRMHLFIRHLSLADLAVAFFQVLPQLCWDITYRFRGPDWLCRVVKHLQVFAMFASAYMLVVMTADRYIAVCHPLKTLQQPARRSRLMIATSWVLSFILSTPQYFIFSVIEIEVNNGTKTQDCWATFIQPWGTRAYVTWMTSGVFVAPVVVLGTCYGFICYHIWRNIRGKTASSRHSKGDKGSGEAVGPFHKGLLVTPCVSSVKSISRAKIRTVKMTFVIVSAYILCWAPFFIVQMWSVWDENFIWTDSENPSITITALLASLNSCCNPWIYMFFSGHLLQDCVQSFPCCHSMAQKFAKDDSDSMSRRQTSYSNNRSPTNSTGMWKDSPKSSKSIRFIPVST
Experimental: After incubation, the mixture is filtered three times using the glass filter (GF/F) so as to separate the membrane preparation combining with vasopressin and then washed with the buffer (5 ml). This glass filter is taken out and mixed with liquid scintillation cocktail. The amount of [^3 H]-vasopressin combining with the membrane is measured by liquid scintillation counter and the rate of the inhibitory effect of the test compound is estimated according to the following equation.
as §1, §2
B1 : The amount of [^3 H]-vasopressin combining with the membrane in the presence of the excess amount of vasopressin (10^-6 M).
as §3

T1 sequence (Q00788 whole entry): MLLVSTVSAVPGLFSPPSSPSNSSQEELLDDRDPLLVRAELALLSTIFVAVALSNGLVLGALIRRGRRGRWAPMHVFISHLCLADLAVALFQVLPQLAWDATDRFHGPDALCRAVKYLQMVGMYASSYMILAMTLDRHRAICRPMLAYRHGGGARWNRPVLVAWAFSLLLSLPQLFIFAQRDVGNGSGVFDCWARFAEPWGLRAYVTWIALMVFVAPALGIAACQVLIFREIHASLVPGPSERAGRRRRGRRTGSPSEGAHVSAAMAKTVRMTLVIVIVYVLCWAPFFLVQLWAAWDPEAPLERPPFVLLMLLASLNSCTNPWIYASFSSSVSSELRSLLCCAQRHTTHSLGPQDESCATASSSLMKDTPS

SMILES	IC50 [1] [nM]	IC50 [2] [nM]
CSCC[C@H](N)C(=O)OC1CCCN(C(=O)c2ccc(NC(=O)c3ccccc3C)cc2Cl)c2ccccc21 (single isomer, unassigned) [Test Compound 10, 5-(L-Methionyloxy)-1-[2-chloro-4-(2-methylbenzoylamino)benzoyl]-2,3,4,5-tetrahydro-1H-benzazepine hydrochloride]	83	
Cc1ccccc1C(=O)Nc1ccc(C(=O)N2CCCC(OC(=O)[C@@H]3CCCN3)c3ccccc32)c(Cl)c1 (single isomer, unassigned) [Test Compound 12, 5-(L-Prolyloxy)-1-[2-chloro-4-(2-methylbenzoylamino)benzoyl]-2,3,4,5-tetrahydro-1H-benzazepine hydrochloride]	9	
COc1cc(NC(=O)c2ccccc2C)ccc1C(=O)N1CCCC(OC(=O)[C@@H](N)CCSC)c2cc(Cl)ccc21 (single isomer, unassigned) [Test Compound 13, 5-(L-Methionyloxy)-7-chloro-1-[2-methoxy-4-(2-methylbenzoylamino)benzoyl]-2,3,4,5-tetrahydro-1H-benzazepine hydrochloride]	6	20
CSCC[C@H](N)C(=O)OC1CCCN(C(=O)c2ccc(NC(=O)c3ccccc3C)cc2C)c2ccc(Cl)cc21 (single isomer, unassigned) [Test Compound 14, 5-(L-Methionyloxy)-7-chloro-1-[2-methyl-4-(2-methylbenzoylamino)benzoyl]-2,3,4,5-tetrahydro-1H-benzazepine hydrochloride]	11	220
Cc1ccccc1C(=O)Nc1ccc(C(=O)N2CCCC(OC(=O)[C@@H](N)C(C)C)c3cc(Cl)ccc32)c(C)c1 (single isomer, unassigned) [Test Compound 15, 5-(L-Valyloxy)-7-chloro-1-[2-methyl-4-(2-methylbenzoylamino)benzoyl]-2,3,4,5-tetrahydro-1H-benzazepine hydrochloride]	14	180
CN(C)C1CCCN(C(=O)c2ccc(NC(=O)Cc3ccccc3Cl)cc2)c2ccccc21 (stereo not drawn) [Test Compound 3, 5-Dimethylamino-1-{4-[2-(2-chlorophenyl)acetylamino]benzoyl}-2,3,4,5-tetrahydro-1H-benzazepine]	61	
COc1ccccc1CC(=O)Nc1ccc(C(=O)N2CCCC(N(C)C)c3ccccc32)cc1 (stereo not drawn) [Test Compound 4, 5-Dimethylamino-1-{4-[2-(2-methoxyphenyl)acetylamino]benzoyl}-2,3,4,5-tetrahydro-1H-benzazepine]	61	
CN(C)C1CCCN(C(=O)c2ccc(NC(=O)Cc3ccccc3F)cc2)c2ccccc21 (stereo not drawn) [Test Compound 5, 5-Dimethylamino-1-{4-[2-(2-fluorophenyl)acetylamino]benzoyl}-2,3,4,5-tetrahydro-1H-benzazepine]	59	
CN(C)C1CCCN(C(=O)c2ccc(NC(=O)Cc3c(Cl)cccc3Cl)cc2)c2ccccc21 (stereo not drawn) [Test Compound 6, 5-Dimethylamino-1-{4-[2-(2,6-dichlorophenyl)acetylamino]benzoyl}-2,3,4,5-tetrahydro-1H-benzazepine]	24	120
CN(C)C1CCCN(C(=O)c2ccc(NC(=O)Cc3ccccc3[N+](=O)[O-])cc2)c2ccccc21 (stereo not drawn) [Test Compound 7, 5-Dimethylamino-1-{4-[2-(2-nitrophenyl)acetylamino]benzoyl}-2,3,4,5-tetrahydro-1H-benzazepine]	140	
CN(C)C1CCCN(C(=O)c2ccc(NC(=O)c3ccccc3Cl)cc2Cl)c2ccc(O)cc21 (stereo not drawn) [Test Compound 8, 5-Dimethylamino-7-hydroxy-1-[2-chloro-4-(2-chlorobenzoylamino)benzoyl]-2,3,4,5-tetrahydro-1H-benzazepine]	250	
Cc1ccccc1C(=O)Nc1ccc(C(=O)N2CCCC(OC(=O)[C@H](C)N)c3ccccc32)c(Cl)c1 (stereo partly drawn) [Test Compound 9, 5-(L-Alanyloxy)-1-[2-chloro-4-(2-methylbenzoylamino)benzoyl]-2,3,4,5-tetrahydro-1H-benzazepine hydrochloride]	17	
CC(=O)Oc1ccc2c(c1)C(N(C)C)CCCN2C(=O)c1ccc(NC(=O)c2ccccc2Cl)cc1Cl (stereo not drawn) [Test Compound 11]	110	
Cc1ccccc1CC(=O)Nc1ccc(C(=O)N2CCCC(O)c3cc(Cl)ccc32)c(C)c1 (stereo not drawn) [Test Compound 16, 5-Hydroxy-7-chloro-1-{2-methyl-4-[2-(2-methylphenyl)acetylamino]benzoyl}-2,3,4,5-tetrahydro-1H-benzazepine]	4	320
COc1cc(C(=O)N2CCCCc3cc(Cl)ccc32)ccc1NC(=O)c1ccccc1OCCCCN1CCN(C(C)=O)CC1 [Test Compound 56, 7-Chloro-1-[3-methoxy-4-{2-[4-(4-acetyl-1-piperazinyl)butoxy]benzoylamino}benzoyl]-2,3,4,5-tetrahydro-1H-benzazepine]		7

Next, values leading:

IC50 [1] [nM]	IC50 [2] [nM]	SMILES
12	21	COc1cc(NC(=O)c2ccccc2C)ccc1C(=O)N1CCCC(OC(=O)CN2CCOCC2)c2cc(Cl)ccc21 (stereo not drawn) [Test Compound 17, 5-(2-Morpholinoacetyloxy)-7-chloro-1-[2-methoxy-4-(2-methylbenzoylamino)benzoyl]-2,3,4,5-tetrahydro-1H-benzazepine hydrochloride]
2800		O=C(Nc1ccc(C(=O)N2CCCC(O)(CO)c3cc(O)ccc32)c(Cl)c1)c1ccccc1Cl (stereo not drawn) [Test Compound 19, 5,7-Dihydroxy-5-hydroxymethyl-1-[2-chloro-4-(2-chlorobenzoylamino)benzoyl]-2,3,4,5-tetrahydro-1H-benzazepine]
5600		CN(C)C(=O)COc1ccc2c(c1)C(N(C)C)CCCN2C(=O)c1ccc(NC(=O)c2ccccc2Cl)cc1Cl (stereo not drawn) [Test Compound 20, 5-Dimethylamino-7-dimethylaminocarbonylmethoxy-1-[2-chloro-4-(2-chlorobenzoylamino)benzoyl]-2,3,4,5 tetrahydro-1H-benzazepine]
6		CCOC(=O)CNC(=O)COC1CCCN(C(=O)c2ccc(NC(=O)c3ccccc3C)cc2Cl)c2ccc(F)cc21 (stereo not drawn) [Test Compound 21, 5-Ethoxycarbonylmethylaminocarbonylmethoxy-7-fluoro-1-[2-chloro-4-(2-methylbenzoylamino)benzoyl]-2,3,4,5-tetrahydro-1H-benzazepine]
18		Cc1ccccc1C(=O)Nc1ccc(C(=O)N2CCCC(OCC(=O)NCC(=O)O)c3cc(F)ccc32)c(Cl)c1 (stereo not drawn) [Test Compound 22, 5-Carboxymethylaminocarbonylmethoxy-7-fluoro-1-[2-chloro-4-(2-methylbenzoylamino)benzoyl]-2,3,4,5-tetrahydro-1H-benzazepine]
11		COC(=O)[C@@H]1CCCN1C(=O)COC1CCCN(C(=O)c2ccc(NC(=O)c3ccccc3C)cc2Cl)c2ccc(F)cc21 (stereo partly drawn) [Test Compound 23, 5-[(2-β-Methoxycarbonyl)-1-pyrrolidinylcarbonylmethoxy]-7-fluoro-1-[2-chloro-4-(2-methylbenzoylamino)benzoyl]-2,3,4,5-tetrahydro-1H-benzazepine]
19		COc1cc(NC(=O)c2ccccc2Cl)ccc1C(=O)N1CCCC(CC(=O)O)c2cc(Cl)ccc21 (stereo not drawn) [Test Compound 31, 5-Carboxymethyl-7-chloro-1-[2-methoxy-4-(2-chlorobenzoylamino)benzoyl]-2,3,4,5-tetrahydro-1H-benzazepine]
6.2		Cc1ccccc1C(=O)Nc1ccc(C(=O)N2CCCC(OCCCN3CCOCC3)c3cc(F)ccc32)c(C)c1 (stereo not drawn) [Test Compound 35, 5-(3-Morpholinopropoxy)-7-fluoro-1-[2-methyl-4-(2-methylbenzoylamino)benzoyl]-2,3,4,5-tetrahydro-1H-benzazepine]
7.6		Cc1ccccc1C(=O)Nc1ccc(C(=O)N2CCCC(OCCCn3ccnc3)c3cc(F)ccc32)c(C)c1 (stereo not drawn) [Test Compound 36, 5-[3-(1-Imidazolyl)propoxy]-7-fluoro-1-[2-methyl-4-(2-methylbenzoylamino)benzoyl]-2,3,4,5-tetrahydro-1H-benzazepine]
13		Cc1ccccc1C(=O)Nc1ccc(C(=O)N2CCCC(CC(=O)N3CCN(C)CC3)c3cc(Cl)ccc32)c(C)c1 (stereo not drawn) [Test Compound 41, 5-[(4-Methyl-1-piperazinyl)carbonylmethyl]-7-chloro-1-[2-methyl-4-(2-methylbenzoylamino]benzoyl]-2,3,4,5-tetrahydro-1H-benzazepine]
52		COc1cc(NC(=O)c2ccccc2OCCCCN2CCN(C(C)=O)CC2)ccc1C(=O)N1CCCCc2cc(Cl)ccc21 [Test Compound 49]
29		CC(=O)N1CCN(CCC2CCCN(C(=O)c3ccc(NC(=O)c4ccccc4C)cc3C)c3ccc(Cl)cc32)CC1 (stereo not drawn) [Test Compound 53, 5-[2-(1-Acetyl-1-piperazinyl)ethyl]-7-chloro-1-[2-methyl-4-(2-methylbenzoylamino)benzoyl]-2,3,4,5-tetrahydro-1H-benzazepine hydrochloride]
9		Cc1ccccc1C(=O)Nc1ccc(C(=O)N2CCCC(OCC(=O)NC3CCNCC3)c3cc(Cl)ccc32)c(C)c1 (stereo not drawn) [Test Compound 57, 7-Chloro-5-[(4-piperidinyl)aminocarbonylmethoxy]-1-[2-methyl-4-(2-methylbenzoylamino)benzoyl]-2,3,4,5-tetrahydro-1H-benzazepine hydrochloride]
9		Cc1ccccc1C(=O)Nc1ccc(C(=O)N2CCCC(OCC(=O)NC3CCN(C)CC3)c3cc(Cl)ccc32)c(C)c1 (stereo not drawn) [Test Compound 59, 5-[(1-Methyl-4-piperidinyl)aminocarbonyl-methoxy]-7-chloro-1-[2-methyl-4-(2-methylbenzoylamino)-benzoyl]-2,3,4,5-tetrahydro-1H-benzazepine]
3		Cc1ccccc1C(=O)Nc1ccc(C(=O)N2CCCC(CC(=O)NCC(N)=O)c3cc(Cl)ccc32)c(C)c1 (stereo not drawn) [Test Compound 62, 5-(Carbamoylmethylaminocarbonylmethyl)-7-chloro-1-[2-methyl-4-(2-methylbenzoylamino)benzoyl]-2,3,4,5-tetrahydro-1H-benzazepine]
